Assay results reported in US20150366966A1, “Stable Aqueous Solution” (SENJU PHARMACEUTICAL CO., LTD., priority 2013, published 2015).

Experiments:
[1] = Light stability of compound A in aqueous solution (residual ratio by HPLC after white light irradiation); format: physicochemical
Protocol: An aqueous solution of compound A was prepared according to the following formulation. In 0.1% phosphate buffer was added a predetermined amount of tyloxapol, octoxynol, polysorbate 80, HCO-60 or MYS-40, and the mixture was adjusted to […] with sodium hydroxide. Compound A in the predetermined amount in the following formulation was dissolved in said solution, and the mixture was sterilized by filtration with a 0.22 μm membrane filter, and filled in a 5 mL colorless glass ampoule. Using a photostability testing device (model: LT-120A-WCD, manufactured by Nagano Science Co., Ltd.), the ampoule was exposed to white light (total illumination 12000 lux·h and 24000 lux·h), and the content of compound A in the glass ampoule was measured.
Compound A after storage was quantified by high performance liquid chromatography using the absolute calibration curve method (the Japanese Pharmacopoeia). […]
An aqueous solution of compound A was prepared according to the following formulation. […] The glass ampoule was placed, under light irradiation conditions and storage conditions at 80° C. for 1 week, and the content of each compound A was measured. Compound A was quantified in the same manner as in Experimental Example 1 and Experimental Example 2.

[2] = biological target: T1, PPARδ (Homo sapiens, UniProt Q03181); settings: reported in WO 03/033493 and WO 2008/143254; cited from earlier work
T1 sequence (Q03181 1-441): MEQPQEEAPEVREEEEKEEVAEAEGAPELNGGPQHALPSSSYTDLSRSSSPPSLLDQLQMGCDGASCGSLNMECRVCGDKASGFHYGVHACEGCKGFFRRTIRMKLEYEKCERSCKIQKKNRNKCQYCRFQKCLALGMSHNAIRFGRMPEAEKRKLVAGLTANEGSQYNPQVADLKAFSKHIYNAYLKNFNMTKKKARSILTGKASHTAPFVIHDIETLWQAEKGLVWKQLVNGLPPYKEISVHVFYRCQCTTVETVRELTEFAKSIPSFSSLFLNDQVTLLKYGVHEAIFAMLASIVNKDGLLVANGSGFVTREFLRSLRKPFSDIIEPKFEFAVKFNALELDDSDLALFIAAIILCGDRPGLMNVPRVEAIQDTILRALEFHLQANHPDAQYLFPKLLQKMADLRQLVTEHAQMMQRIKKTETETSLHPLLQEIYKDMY

[3] = Solubility of compound A in water; format: physicochemical
Protocol: This has already been shown by the fact that the heat stability of compound A in an aqueous solution decreases extremely when polysorbate 80 conventionally widely used as a solubilizer of poorly soluble drugs is added (see below-mentioned Experimental Example 2, Comparative Example 1).

For Cc1cc2c(CCc3sc(-c4ccc(C(F)(F)F)cc4)nc3C(C)C)noc2cc1OCC(=O)O [Compound A, (3-{2-[4-isopropyl-2-(4-trifluoromethyl)phenyl-5-thiazolyl]ethyl}-5-methyl-1,2-benzisoxazol-6-yl)oxyacetic acid], the “stability to light in aqueous solution (in words)” value [1] is given as “extremely unstable to light in an aqueous solution”, the “PPARδ agonist action (in words)” value [2] is given as “PPARδ agonist” and the “solubility in water (in words)” value [3] is given as “practically insoluble in water”.
